Read-outs that look alike come from different tables or passages of the source.
Legend:
GP2D cells = assay: Cell proliferation assay (CellTiter-Glo), K-Ras G12D cells; assay type: cell-based; conditions: read-out: Inhibition of GP2D Cells (IC50)
Procedure: ASPC-1 (ATCC CRL-1682), Panc-10.05 (ATCC CRL-2547), A427, and GP2D (Sigma 95090714) cell lines comprise a G12D mutation and can be used to assess Ras cellular signaling in vitro, e.g., in response to the compounds herein. […] ASPC-1 culture medium is prepared with RPMI-1640 and 10% heat-inactivated FBS. Panc-10.05 culture medium is prepared with RPMI-1640, 10 Units/ml human recombinant insulin, and 10% FBS. A427 cell culture is prepared with RPMI-1640 and 10% heat-inactivated FBS. GP2D culture medium is prepared with DMEM with 2mM glutamine and 10% heat-inactivated FBS. A Cell Titer-Glo (CTG) luminescent based assay (Promega) is used to assess growth of the cells, as a measurement of the ability of the compounds herein to inhibit Ras signaling in the cells. The cells (e.g., 800 per well) are seeded in their respective culture medium in standard tissue culture-treated 384-well format plates (Falcon #08-772-116) or ultra-low attachment surface 384-well format plates (S-Bio # MS-9384UZ ). The day after plating, cells are treated with a dilution series (e.g., a 9 point 3-fold dilution series) of the compounds herein (e.g., approximately 40 µl final volume per well). Cell viability can be monitored (e.g., approximately 5 days later) according to the manufacturer's recommended instructions, where the CellTiter-Glo reagent is added (e.g., approximately 10 µl), vigorously mixed, covered, and placed on a plate shaker (e.g., approximately for 20 min) to ensure sufficient cell lysis prior to assessment of luminescent signal. The IC50 values are determined using the four parameter fit. The resulting IC50 value is a measurement of the ability of the compounds herein to reduce cell growth of Ras-driven cells (e.g., tumor cell lines) in vitro and/or in vivo.

K-Ras G12S = target: T1, K-Ras G12S (Homo sapiens, UniProt P01116, G12S); assay: HTRF assay of the K-Ras / SOS1 interaction; assay type: biochemical; conditions: IC50 (against K-Ras G12D) to IC50 (against K-Ras G12S)
T1 construct: made in house; host or cells: E. coli (e.g., BL21 (DE3))
Description: This assay can be also used to assess a selective inhibition or reduction of signaling output of a mutant Ras protein relative to a wildtype, or relative to a different mutant Ras protein. For example, the equilibrium interaction of wildtype Kras or K-Ras mutant (e.g., wildtype or a mutant thereof including those mentioned in Example 6) with SOS1 (e.g., hSOS1) can be assessed as a proxy or an indication for a subject compound's ability to bind and inhibit Ras protein. HTRF assay detects from (i) a fluorescence resonance energy transfer (FRET) donor (e.g., antiGST-Europium) that is bound to GST-tagged K-Ras mutant to (ii) a FRET acceptor (e.g., anti-6His-XL665) bound to a His-tagged hSOS 1.
The assay buffer can contain ~5 mM HEPES pH 7.4, -150 mM NaCI, - 1 mM DTT, 0.05% BSA and 0.0025% (v/v) Igepal. A Ras working solution is prepared in an assay buffer containing typically a suitable amount of the protein construct (e.g., GST-tagged K-Ras mutant) and the FRET donor (e.g., antiGST-Eu(K) from Cisbio, France). A SOS1 working solution is prepared in an assay buffer containing suitable amount of the protein construct (e.g., His-hSOS1) and the FRET acceptor (e.g., anti-6His-XL665 from Cisbio, France). A suitable amount of the protein construct will depend on the range of activity or range of IC50 values being detected or under investigation. For detecting IC50 within a range of 500 nM, the protein constructs of the same range of molarity can be utilized.
A fixed volume of DMSO with or without test compound is transferred into a 384-well plate. Ras working solution is added to all wells of the test plate. SOS1 working solution is added to all wells except for those that are subsequently filled the inhibitor control solution. Upon incubation for about 10 minutes or longer, the fluorescence is measured with a M1000Pro plate reader (Tecan) using HTRF detection (excitation 337nm, emission 1 : 620nm, emission 2: 665nm). Compounds are tested in duplicates at different concentrations (for example, 10 µM, 2.5 µM, 0.63 µM, 0.16 µM, 0.04 µM, 0.01 µM test compound). The ratiometric data (i.e., emission 2 divided by emission 1) is used to calculate IC50 values against Ras using GraphPad Prism (GraphPad software). Following this general procedure, samples were tested with or without a subject compound disclosed herein including compounds exemplified in Table 3 to assess their abilities to inhibit K-Ras G12S relative to another mutant (e.g., K-Ras G12D). Signaling output measured in terms of IC50 values can be obtained, a ratio of IC50 against one mutant relative to another mutant can be calculated. For instance, a selective reduction of K-Ras G12S signaling output can be evidenced by a ratio greater than one. In particular, a selective reduction of K-Ras G12S signaling relative to K-Ras G12D signaling is evidenced as the ratio of IC50 (against K-Ras G12D) to IC50 (against K-Ras G12S) is greater than 1. […]

T1 sequence (P01116 1-188 isoform P01116-2 G12S): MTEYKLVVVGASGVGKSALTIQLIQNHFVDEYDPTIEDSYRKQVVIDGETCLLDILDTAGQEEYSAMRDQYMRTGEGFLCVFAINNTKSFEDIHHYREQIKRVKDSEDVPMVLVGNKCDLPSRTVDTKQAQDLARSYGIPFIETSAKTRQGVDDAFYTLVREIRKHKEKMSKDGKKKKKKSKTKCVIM

Row | Compound | IC50 (GP2D cells; GP2D cells (K-Ras G12D)) [nM] | Ratio of IC50 KRAS G12D vs. IC50 KRAS G12S (K-Ras G12S) | also measured
1 | C#Cc1c(F)ccc2cc(O)cc(-c3ccc4c(N5CC6CCC(C5)N6C(=O)n5cncn5)nc(OC[C@@]56CCCN5C[C@H](F)C6)nc4c3F)c12 [Compound A281, (3-(7-(8-ethynyl-7-fluoro-3-hydroxynaphthalen-1-yl)-8-fluoro-2-(((2R,7aS)-2-fluorotetrahydro-1H-pyrrolizin-7a(5H)-yl)methoxy)quinazolin-4-yl)-3,8-diazabicyclo[3.2.1]octan-8-yl)(1H-1,2,4-triazol-1-yl)methanone] | ≤ 1000 |  | 
2 | N#Cc1cnn(C(=O)N2C3CCC2CN(c2nc(OC[C@@]45CCCN4C[C@H](F)C5)nc4c(F)c(-c5ccc(F)c6sc(N)c(C#N)c56)ccc24)C3)c1 [Compound A176, 1-(3-(7-(2-amino-3-cyano-7-fluorobenzo[b]thiophen-4-yl)-8-fluoro-2-(((2R,7aS)-2-fluorotetrahydro-1H-pyrrolizin-7a(5H)-yl)methoxy)quinazolin-4-yl)-3,8-diazabicyclo[3.2. 1]octane-8-carbonyl)-1H-pyrazole-4-carbonitrile] |  |  | IC50 (GP2D cells; GP2d): 1000 to 10000 nM
3 | N#Cc1c(N)sc2c(F)ccc(-c3c(Cl)cc4c(N5CC6CCC(C5)N6C(=O)n5ncnc5C#N)nc(OC[C@@]56CCCN5C[C@H](F)C6)nc4c3F)c12 [Compound A246] | ≤ 1000 |  | 
4 | C#Cc1c(F)ccc2cccc(-c3ccc4c(N5CC6CCC(C5)N6C(=O)n5cncn5)nc(OC[C@@]56CCCN5C[C@H](F)C6)nc4c3F)c12 [Compound A229, (3-(7-(8-ethynyl-7-fluoronaphthalen-1-yl)-8-fluoro-2-(((2R,7aS)-2-fluorotetrahydro-1H-pyrrolizin-7a(5H)-yl)methoxy)quinazolin-4-yl)-3,8-diazabicyclo[3.2.1]octan-8-yl)(1H-1,2,4-triazol-1-yl)methanone] |  |  | IC50 (GP2D cells; GP2d): 1000 to 10000 nM
5 | N#Cc1c(N)sc2c(F)ccc(-c3c(Cl)cc4c(O[C@@H]5C[C@H]6CC[C@@H](C5)N6C(=O)n5cncn5)nc(OC[C@@]56CCCN5C[C@H](F)C6)nc4c3F)c12 [Compound A247, 4-(4-(((1R,3s,5S)-8-(1H-1,2,4-triazole-1-carbonyl)-8-azabicyclo[3.2.1]octan-3-yl)oxy)-6-chloro-8-fluoro-2-(((2R,7aS)-2-fluorotetrahydro-1H-pyrrolizin-7 a(5H)-yl)methoxy)quinazolin-7-yl)-2-amino-7-fluorobenzo[b]thiophene-3-carbonitrile] |  |  | IC50 (GP2D cells; GP2d): 1000 to 10000 nM
6 | C#Cc1c(F)ccc2cc(O)cc(-c3ncc4c(N5CC6CCC(C5)N6C(=O)n5cncn5)nc(OC[C@@]56CCCN5C[C@H](F)C6)nc4c3F)c12 [Compound A234, (3-(7-(8-ethynyl-7-fluoro-3-hydroxynaphthalen-1-yl)-8-fluoro-2-(((2R,7aS)-2-fluorotetrahydro-1H-pyrrolizin-7a(5H)-yl)methoxy)pyrido[4,3-d]pyrimidin-4-yl)-3,8-diazabicyclo[3.2.1]octan-8-yl)(1H-1,2,4-triazol-1-yl)methanone] | ≤ 1000 |  | 
7 | N#Cc1c(N)sc2c(F)ccc(-c3c(Cl)cc4c(N5CC6CCC(C5)N6C(=O)n5ccnc5C#N)nc(OC[C@@]56CCCN5C[C@H](F)C6)nc4c3F)c12 [Compound A220, 1-(3-(7-(2-amino-3-cyano-7-fluorobenzo[b]thiophen-4-yl)-6-chloro-8-fluoro-2-(((2R,7aS)-2-fluorotetrahydro-1H-pyrrolizin-7a(5H)-yl)methoxy)quinazolin-4-yl)-3,8-diazabicyclo[3.2. 1]octane-8-carbonyl)-1H-imidazole-2-carbonitrile] | ≤ 1000 |  | 
8 | C#Cc1c(F)ccc2cc(O)cc(-c3ncc4c(N5CC6CCC(C5)N6C(=O)Nc5ncccn5)nc(OC[C@@]56CCCN5C[C@H](F)C6)nc4c3F)c12 [Compound A131, 3-(7-(8-ethynyl-7-fluoro-3-hydroxynaphthalen-1-yl)-8-fluoro-2-(((2R,7aS)-2-fluorotetrahydro-1H-pyrrolizin-7a(5H)-yl)methoxy)pyrido[4,3-d]pyrimidin-4-yl)-N-(pyrimidin-2-yl)-3,8-diazabicyclo[3.2. 1]octane-8-carboxamide] | ≤ 1000 |  | 
9 | N#Cc1ccn(C(=O)N2CCC(Nc3nc(OC[C@@]45CCCN4C[C@H](F)C5)nc4c(F)c(-c5ccc(F)c6sc(N)nc56)c(Cl)cc34)CC2)n1 [Compound A173, 1-(4-((7-(2-amino-7-fluorobenzo[d]thiazol-4-yl)-6-chloro-8-fluoro-2-(((2R,7aS)-2-fluorotetrahydro-1H-pyrrolizin-7a(5H)-yl)methoxy)quinazolin-4-yl)amino)piperidine-1-carbonyl)-1H-pyrazole-3-carbonitrile] |  | A (A: indicates that the ratio of IC50 against KrasG12D vs. IC50 against KrasG12S is 1-fold or greater) | 
10 | Nc1nc2c(-c3c(Cl)cc4c(NC5CCN(C(=O)n6cccn6)CC5)nc(OC[C@@]56CCCN5C[C@H](F)C6)nc4c3F)ccc(F)c2s1 [Compound A254, (4-((7-(2-amino-7-fluorobenzo[d]thiazol-4-yl)-6-chloro-8-fluoro-2-(((2R,7aS)-2-fluorotetrahydro-1H-pyrrolizin-7a(5H)-yl)methoxy)quinazolin-4-yl)amino)piperidin-1-yl)(1H-pyrazol-1-yl)methanone] |  | A (A: indicates that the ratio of IC50 against KrasG12D vs. IC50 against KrasG12S is 1-fold or greater) | 
11 | CO[C@@H]1CN(C)C[C@H]1Oc1nc(N2CC3CCC(C2)N3C(=O)n2cc(C#N)cn2)c2cc(Cl)c(-c3ccc(F)c4sc(N)nc34)c(F)c2n1 [Compound A248, 1-(3-(7-(2-amino-7-fluorobenzo[d]thiazol-4-yl)-6-chloro-8-fluoro-2-(((3R,4R)-4-methoxy-1-methylpyrrolidin-3-yl)oxy)quinazolin-4-yl)-3,8-diazabicyclo[3.2.1]octane-8-carbonyl)-1H-pyrazole-4-carbonitrile] |  | A (A: indicates that the ratio of IC50 against KrasG12D vs. IC50 against KrasG12S is 1-fold or greater) | 
12 | Nc1nc2c(-c3c(Cl)cc4c(N5CC6CCC5CN6C(=O)n5cncn5)nc(OC[C@@]56CCCN5C[C@H](F)C6)nc4c3F)ccc(F)c2s1 (stereo partly drawn) [Compound A192, (5-(7-(2-amino-7-fluorobenzo[d]thiazol-4-yl)-6-chloro-8-fluoro-2-(((2R,7aS)-2-fluorotetrahydro-1H-pyrrolizin-7a(5H)-yl)methoxy)quinazolin-4-yl)-2,5-diazabicyclo[2.2.2]octan-2-yl)(1H-1,2,4-triazol-1-yl)methanone] |  | A (A: indicates that the ratio of IC50 against KrasG12D vs. IC50 against KrasG12S is 1-fold or greater) | 

Source: EP4389751A1, “HETEROCYCLIC COMPOUNDS AND USES THEREOF” (Kumquat Biosciences Inc., priority 2021, dated 2024)
